{"source": "patent US20220133761A1", "about": "“NEUTROPHIL APOPTOSIS INDUCED BY NANOPARTICLES FOR TREATING INFLAMMATORY DISEASES” (WASHINGTON STATE UNIVERSITY, priority 2020, published 2022)", "key": {"[1]": {"test_system": "differentiated HL-60 cells", "assay": "Apoptosis analysis, Annexin V-FITC / 7AAD staining (flow cytometry, CLSM)", "assay_type": "cell-based, human", "protocol": "To investigate the apoptosis of neutrophils induced by DOX, Annexin V-FITC and 7AAD were used to double stain differentiated HL-60 cells. […] The cells were re-suspended in a binding buffer for staining of Annexin V-FITC and 7AAD (emission at 650 nm) according to the manufacturer's protocol (Invitrogen). Stained cells were analyzed using a flow cytometer and imaged by a Nikon A1R^+ confocal laser scanning microscope."}, "human neutrophils": {"test_system": "human neutrophils", "assay": "Uptake of nanoparticles by human neutrophils in vitro (flow cytometry)", "assay_type": "cell-based", "settings": "30 ug/ml, 2 h", "protocol": "FIG. 15 show novel data of uptake of DOX-hdy-BSA NPs by human neutrophils. Human neutrophils were incubated with DOX-hyd-BSA NPs (the concentration at 30 ug/ml) for 2 h, and then the cells were washed, and they were analyzed by flowcytometry.\nIt is also to be noted that the methods herein also pertain to making human albumin nanoparticles similar to BSA NPs. […] Human neutrophils were incubated with DOX-hyd-BSA NPs (the concentration at 30 ug/ml) for 2 h, and then the cells were washed and analyzed by flowcytometry."}, "[2]": {"assay": "In vitro drug release profile (dialysis, 37 C)", "assay_type": "physicochemical", "protocol": "Release profiles of DOX from NPs were studied using dialysis method at 37° C.(33) Briefly, 3 mg of NPs was dispersed in 3 mL (Ve) PBS at different pH, and then was placed in a dialysis bag (MWCO 3500 Da). The dialysis bag was immersed in 47 mL PBS (pH 7.4, 6.5 or 5.0) in a beaker. The beaker was then placed in a 37° C. water bath and stirred at 110 rpm. The samples were drawn at desired time intervals and the drug concentration was measured using UV-Vis absorption. The experiments were carried out in triplicate at each pH value. The accumulative drug release percent (Er) was calculated based on equation (1).\nwhere, mdrug represents the amount of DOX in NPs, V0 was the whole volume of release media (V0=50 mL), Ci represents the concentration of DOX in the ith sample."}, "LPS-challenged mice [3]": {"test_system": "LPS-challenged mice", "assay": "Survival study in sepsis mouse model (i.p. LPS 50 mg/kg)", "assay_type": "in vivo", "settings": "72 h, 0.2 mg/kg DOX i.v. 4 h after i.p. LPS 50 mg/kg", "protocol": "Adult CD-1 mice were i.p. injected with LPS (50 mg/kg) in the mouse sepsis model. 4 hours later, the LPS-challenged mice were grouped randomly (10 mice per group) and treated (i.v.) with PBS, free DOX (0.2 mg/kg), and prodrug DOX-hyd-BSA NPs (equal to 0.2 mg/kg of free DOX). The animals were monitored every 6 h in the first 12 h followed by monitoring mice every 12 h in 72 h."}, "cerebral I/R mouse model": {"test_system": "cerebral I/R mouse model", "assay": "Middle cerebral artery occlusion (MCAO) cerebral I/R mouse model", "assay_type": "in vivo", "protocol": "CD1 mice were used. Mice were anesthetized using 100 mg/kg of ketamine and 5 mg/kg of xylazine. They were positioned in the supine position on a heating pad. A carotid artery (CA) was exposed via the midline neck incision. An external carotid artery (ECA) was separated and occulated with two knots. Next, the internal carotid artery (ICA) was isolated, and the CA and ICA were clipped. A small hole was cut in the ECA above the second knot. A 6-0 medium MCAO suture was then introduced into ICA. Mice were kept for 60 min after occlusion in a heated cage, and the suture was withdrawn for reperfusion. Finally, the skin was closed and the mice were returned to the individual cage.\nThe damaged brain tissues were collected 24 h after MCAO and homogenized in PBS with 5% hexadecyltrimethylammonium bromide (HTAB). The homogenate was sonicated, and centrifuged at 13,000 rpm for 10 min. Next, 10 μL supernatant was loaded into each well of a 96-well plate. A solution of o-Dianisidine dihydrochloride with 0.0005% hydrogen peroxide in potassium phosphate buffer was added to the samples. Absorbance was measured at 450 nm. MPO activity is expressed as change in absorbance per minute per gram of tissue.\nThe damaged brain tissues of mice were collected 24 h after MCAO surgery and homogenized in PBS buffer. The level of cytokines (TNF-α, IL-1β, IL-6) was quantified using commercial ELISA assay as aforementioned.\nVideos were taken 24 h after MCAO surgery and neurological deficit scores were given by two people. The scores are divided into five grades for neurological scores of mice after cerebral ischemia."}, "[4]": {"test_system": "heart, liver, spleen, lung and kidney", "assay": "Toxicity by histological analysis (H&E staining of major organs)", "settings": "0.2 mg/kg DOX", "protocol": "After different treatments (healthy, PBS, 4 mg/kg of free DOX, 0.2 mg/kg of free DOX, DOX-hyd-BSA NPs and DOX-ab-BSA NPs, equal to 0.2 mg/kg of DOX for NPs), mice were sacrificed by carbon dioxide asphyxiation. […] The samples were imaged by a microscope (ZEISS, Observer. Z1, USA)."}, "[5]": {"test_system": "differentiated HL-60 cells (neutrophil-like cells)", "assay": "In vitro cytotoxicity, CCK-8 assay", "assay_type": "cell-based, human", "settings": "24 h, different concentrations of DOX", "protocol": "Cytotoxic effects of BSA NPs on HL-60 cells were measured by CCK-8 assay. HL-60 cells were plated in 96-well plates (Costar, Corning, N.Y.) at 5,000-10,000 cells/well. After incubation for 24 h, the culture medium was removed and a complete medium with various concentrations of free DOX, BSA and DOX-conjugated BSA NPs was used to incubate cells for 24 h, respectively. 10 μL of the solution cell proliferation reagent (Promega, Madison, Wis.) per well was added. Then, the cell viability was measured by a Synergy Neo fluorescence plate reader (BioTek, Winooski, Vt.) at 490 nm."}, "LPS-challenged mice [6]": {"test_system": "LPS-challenged mice", "assay": "Second LPS hit (i.t.) in mice that survived sepsis after NP treatment", "experimental": "The mice were challenged with LPS (i.p., 50 mg/kg) or PBS (control). 4 h later, the LPS-challenged mice were i.v. treated with DOX-hyd-BSA NPs at 0.2 mg/kg of DOX. The control mice were not treated with LPS and NPs. 72 h later, all survival and control (healthy) mice were challenged with LPS (i.t., 10 mg/kg).\nThe combinatory experiments were designed in which a mouse was i.p. challenged with LPS to cause sepsis, and then a mouse was treated with DOX-loaded NPs 4 h after the LPS challenge. At 72 h after the LPS challenge, the survival mouse was i.t. administered to examine whether neutrophils can transmigrate and respond to the second hit of LPS (see FIG. 10M of experimental protocol diagram)."}, "[7]": {"settings": "0.2 mg/kg DOX i.v. 1 h after reperfusion, 22 h post-injection, vs free DOX and PBS"}}}
{"substance": "DOX-hyd-BSA NPs", "values": [{"measurement": "apoptotic cells by flow cytometry", "setting": "[1]; 24 h, DOX 3 μg/mL", "result": 89, "unit": "%"}, {"measurement": "Annexin V-FITC / 7AAD staining by confocal microscopy", "setting": "[1]; 24 h treatment", "result": "contained staining of Annexin-V-FITC, and less staining of 7AAD"}, {"measurement": "uptake by human neutrophils", "setting": "human neutrophils", "result": "can be efficiently taken up"}, {"measurement": "cumulative DOX release", "setting": "[2]; pH 5.0, first 10 h", "result": 80, "unit": "%"}, {"measurement": "cumulative DOX release", "setting": "[2]; pH 5, in 30 h", "result": "completely released DOX"}, {"measurement": "cumulative DOX release", "setting": "[2]; pH 6.5, first 10 h", "result": 60, "unit": "%"}, {"measurement": "mouse survival", "setting": "LPS-challenged mice [3]", "result": 70, "unit": "%"}, {"measurement": "cytokines in the brain (TNF-α, IL-1β, IL-6)", "setting": "cerebral I/R mouse model; [7]", "result": "significantly reduced"}, {"measurement": "neutrophil numbers in the brain (MPO activity)", "setting": "cerebral I/R mouse model; [7]", "result": "significantly reduced"}, {"measurement": "neurological deficits (behavior scores)", "setting": "cerebral I/R mouse model; 0.2 mg/kg of DOX, 24 h after MCAO", "result": "enhanced mouse neurological recovery and improved mouse movements"}, {"measurement": "tissue or cellular damage in H&E sections of heart, liver, spleen, lung, kidney", "setting": "[4]", "result": "did not show any noticeable signs of tissue or cellular damage"}, {"measurement": "cytotoxicity (cell viability)", "setting": "[5]", "result": "cytotoxicity was similar for both free DOX and DOX-hyd-BSA NPs"}, {"measurement": "body weight of mice that survived sepsis", "setting": "LPS-challenged mice [6]; 0.2 mg (DOX)/kg dose", "result": "returned to their initial weight"}, {"measurement": "response of neutrophils to second LPS challenge (BALF neutrophils, cytokines)", "setting": "LPS-challenged mice [6]; i.t. LPS 10 mg/kg at 72 h, BALF at 84 h, vs healthy mice", "result": "can immediately respond to the challenge of LPS like what the healthy mice did"}]}
